Experimental data as given in PMC4806279, “Metabolism and Metabolic Inhibition of Xanthotoxol in Human Liver Microsomes” (Evidence-based Complementary and Alternative Medicine : eCAM, 2016).

Assays:
cytochrome P450s (CYPs) = assay: Inhibition of xanthotoxol metabolite production in HLMs by a nonspecific CYP inhibitor; assay type: in vitro ADME, human; settings: xanthotoxol as substrate, 500 μM ABT
Description: Inhibition study was conducted using the above incubation system consisting of liver microsomes, NADPH-generating system, probe substrate at the concentration of about K m value, and xanthotoxol (or the control inhibitor). The concentrations of positive inhibitors used were as follows: 10 μM furafylline for CYP1A2, 2.5 μM 8-methoxypsoralen for CYP2A6, 10 μM quercetin for CYP2C8, 10 μM sulfaphenazole for CYP2C9, 10 μM quinidine for CYP2D6, 50 μM clomethiazole for CYP2E1, 20 μM omeprazole for CYP2C19, 1 μM ketoconazole for CYP3A4, and 500 μM ABT for broad CYP450s. […]

CYP1A2 = target: T1, CYP1A2 (Homo sapiens, UniProt P05177); assay: Inhibition of phenacetin o-deethylation in human liver microsomes; assay type: in vitro ADME
T1 construct: The HLMs were prepared from eleven individual human donor livers; tissue Research Institute for Liver Disease Co. (Shanghai, China); host or cells: human liver microsomes, pool of eleven donors
T1 sequence (P05177 1-516): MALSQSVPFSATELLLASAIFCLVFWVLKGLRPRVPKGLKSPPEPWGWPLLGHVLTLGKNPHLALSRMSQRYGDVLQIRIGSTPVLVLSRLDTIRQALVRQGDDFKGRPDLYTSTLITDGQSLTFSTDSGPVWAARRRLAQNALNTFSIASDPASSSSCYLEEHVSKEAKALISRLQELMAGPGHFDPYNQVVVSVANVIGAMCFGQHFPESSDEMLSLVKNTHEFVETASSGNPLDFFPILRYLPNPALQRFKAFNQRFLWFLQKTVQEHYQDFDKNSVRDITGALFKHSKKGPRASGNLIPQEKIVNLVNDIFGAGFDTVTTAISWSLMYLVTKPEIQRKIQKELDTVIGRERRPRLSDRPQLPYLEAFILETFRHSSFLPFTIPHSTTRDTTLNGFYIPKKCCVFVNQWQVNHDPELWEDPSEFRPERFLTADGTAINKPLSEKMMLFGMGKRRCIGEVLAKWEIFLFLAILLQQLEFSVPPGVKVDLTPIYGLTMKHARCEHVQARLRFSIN
Description: (§1) Liver microsomes from human (HLMs) used in this study were provided by the Research Institute for Liver Disease Co. (Shanghai, China). The HLMs were prepared from eleven individual human donor livers. Protein concentration and microsomes activities of CYP2C19, CYP2A6, CYP2C8, CYP2D6, CYP1A2, CYP2C9, CYP2E1, and CYP3A4 had been previously characterized by the Research Institute for Liver Disease Co.
(§2) HLMs phenacetin o-deethylation, coumarin 7-hydroxylation, paclitaxel 6α-hydroxylation, diclofenac 4′-hydroxylation, dextromethorphan o-demethylation, chlorzoxazone 6-hydroxylation, testosterone 6β-hydroxylation, and S-mephenytoin 4′-hydroxylation activities were utilized as selective markers for CYP1A2, CYP2A6, CYP2C8, CYP2C9, CYP2D6, CYP2E1, CYP3A4, and CYP2C19.
(§3) The optimal conditions for microsomal incubation were described previously. The incubation mixture, with a total volume of 200 μL, consisted of 100 mM potassium phosphate buffer (pH 7.4), an NADPH-generating system (10 mM glucose 6-phosphate, 1 unit/mL of glucose 6-phosphate dehydrogenase, and 4 mM MgCl2), liver microsomes (0.3 mg/mL), or recombinant CYP450s (15 nM). […] After a 5 min preincubation at 37°C, the NADP^+ (1 mM, 20 μL) was added into the mixture to initiate the reaction. The reaction was terminated by the addition of methanol (200 μL) with internal standard. The mixture was kept on ice until it was centrifuged at 20 000 ×g for 10 min at 4°C. Aliquots of supernatants were stored at −40°C until analysis. Control incubations without NADPH or without substrate or without microsomes were carried out to ensure that the formation of metabolites was microsomes and NADPH dependent. All incubations throughout the study were carried out in at least three independent experiments with standard deviations (SD) generally below 10%.
(§4) Inhibition study was conducted using the above incubation system consisting of liver microsomes, NADPH-generating system, probe substrate at the concentration of about K m value, and xanthotoxol (or the control inhibitor). […]

CYP2A6 = target: T2, CYP2A6 (Homo sapiens, UniProt P11509); assay type: in vitro ADME; settings: 100 μM, pH 7.4
T2 construct: The HLMs were prepared from eleven individual human donor livers; tissue Research Institute for Liver Disease Co. (Shanghai, China); host or cells: human liver microsomes, pool of eleven donors
T2 sequence (P11509 1-494): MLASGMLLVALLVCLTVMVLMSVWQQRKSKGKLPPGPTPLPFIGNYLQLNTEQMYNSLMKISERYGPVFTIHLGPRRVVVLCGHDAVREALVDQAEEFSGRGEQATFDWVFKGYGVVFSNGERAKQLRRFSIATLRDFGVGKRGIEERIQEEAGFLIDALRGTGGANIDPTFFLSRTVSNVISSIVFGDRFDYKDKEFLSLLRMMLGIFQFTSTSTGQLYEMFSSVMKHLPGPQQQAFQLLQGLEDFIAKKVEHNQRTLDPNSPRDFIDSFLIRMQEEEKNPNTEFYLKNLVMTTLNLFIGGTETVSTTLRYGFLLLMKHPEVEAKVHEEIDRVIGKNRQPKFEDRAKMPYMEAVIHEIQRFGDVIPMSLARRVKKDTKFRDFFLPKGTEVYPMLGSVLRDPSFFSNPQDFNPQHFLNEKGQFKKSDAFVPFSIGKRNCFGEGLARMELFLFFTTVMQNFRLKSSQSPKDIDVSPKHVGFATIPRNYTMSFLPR
Description: as §1, §2, §3, §4

CYP2C8 = target: T3, CYP2C8 (Homo sapiens, UniProt P10632); assay type: in vitro ADME; settings: 100 μM, pH 7.4
T3 construct: The HLMs were prepared from eleven individual human donor livers; tissue Research Institute for Liver Disease Co. (Shanghai, China); host or cells: human liver microsomes, pool of eleven donors
T3 sequence (P10632 1-490): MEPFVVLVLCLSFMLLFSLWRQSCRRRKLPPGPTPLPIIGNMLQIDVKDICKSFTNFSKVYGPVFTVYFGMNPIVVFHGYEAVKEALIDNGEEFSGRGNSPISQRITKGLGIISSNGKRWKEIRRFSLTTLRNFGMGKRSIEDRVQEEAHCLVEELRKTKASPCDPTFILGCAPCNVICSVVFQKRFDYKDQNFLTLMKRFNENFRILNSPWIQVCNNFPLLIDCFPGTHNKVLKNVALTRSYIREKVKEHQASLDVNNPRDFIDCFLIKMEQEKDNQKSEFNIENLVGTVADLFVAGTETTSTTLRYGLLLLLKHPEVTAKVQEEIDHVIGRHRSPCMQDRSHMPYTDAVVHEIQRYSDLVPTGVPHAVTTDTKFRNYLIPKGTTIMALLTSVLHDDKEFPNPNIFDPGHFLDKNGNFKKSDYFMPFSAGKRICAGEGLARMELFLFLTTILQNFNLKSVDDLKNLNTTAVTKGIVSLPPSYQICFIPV
Description: as §1, §2, §3, §4

CYP2E1 [1] = target: T4, CYP2E1 (Homo sapiens, UniProt P05181); assay type: in vitro ADME; settings: 100 μM, pH 7.4
T4 construct: The HLMs were prepared from eleven individual human donor livers; tissue Research Institute for Liver Disease Co. (Shanghai, China); host or cells: human liver microsomes, pool of eleven donors
Description: as §1, §2, §3, §4

CYP3A4 = target: T5, CYP3A4 (Homo sapiens, UniProt P08684); assay: Inhibition of testosterone 6β-hydroxylation in human liver microsomes; assay type: in vitro ADME
T5 construct: The HLMs were prepared from eleven individual human donor livers; tissue Research Institute for Liver Disease Co. (Shanghai, China); host or cells: human liver microsomes, pool of eleven donors
Description: as §1, §2, §3, §4

CYP2E1 [2] = target: T4, CYP2E1; assay type: in vitro ADME; settings: recombinant enzyme, 30 min, 10 mM, pH 7.4
Description: as §3
The enzymes involved in the xanthotoxol metabolism were investigated using cDNA-expressed human P450 isoforms including CYP3A4, CYP2D6, CYP2E1, CYP2C9, CYP2C19, and CYP1A2. The incubation for each isoenzyme was carried out as described for the liver microsomal study. […]

in vitro = in vitro ADME; settings: human
Description: as §3
To estimate kinetic parameters of xanthotoxol and make sure that the formations of metabolites were in the linear range of both reaction time and the concentration of microsomes, xanthotoxol (0.25–200 μM) was incubated with pooled HLMs for 30 min. Reaction velocities and substrate concentrations were used to calculate the apparent K m and V max values according to nonlinear regression from the Michaelis-Menten equation (see (1)). CLint was calculated as V max/K m. In addition, the result was graphically represented on Eadie-Hofstee plots (velocities versus ratios of velocities to substrate concentrations) to determine whether the metabolism was monophasic or biphasic. Consider(1) V=Vmax·S/Km+S, where V max was the maximum reaction velocity, K m was the Michaelis constant that represented the substrate concentration at which the velocity was half of V max, V was the reaction velocity, and [S] was the substrate concentration.

[3] = assay type: in vitro ADME; settings: human
Text: The following equations were used to predict the xanthotoxol clearance in human:(2) CLint in vitro=Vmax/Km,CLint in vivo=CLint in vitro·SF,CLH=QH·fu·CLint in vivo/QH+fu·CLint in vivo, where SF (scaling factor) represents the milligrams of microsomal protein per gram of liver multiplied by the grams of liver weight; CLint is the intrinsic metabolic clearance; CLH is hepatic clearance; f u is the free fraction in blood (there are no data of xanthotoxol; here f u was arbitrarily proposed to be 1); Q H is the hepatic blood flow. The hepatic clearance of xanthotoxol was calculated using (2), and physiological parameters in human were described as follows: microsomal protein per gram of liver, liver weight per kilogram of body, and liver blood flow for human were 48.8 mg, 25.7 g, and 20.7 mL·min^−1·kg^−1, respectively.

[4] = HLMs, Lineweaver-Burk and Dixon plots

T5 sequence (P08684 whole entry): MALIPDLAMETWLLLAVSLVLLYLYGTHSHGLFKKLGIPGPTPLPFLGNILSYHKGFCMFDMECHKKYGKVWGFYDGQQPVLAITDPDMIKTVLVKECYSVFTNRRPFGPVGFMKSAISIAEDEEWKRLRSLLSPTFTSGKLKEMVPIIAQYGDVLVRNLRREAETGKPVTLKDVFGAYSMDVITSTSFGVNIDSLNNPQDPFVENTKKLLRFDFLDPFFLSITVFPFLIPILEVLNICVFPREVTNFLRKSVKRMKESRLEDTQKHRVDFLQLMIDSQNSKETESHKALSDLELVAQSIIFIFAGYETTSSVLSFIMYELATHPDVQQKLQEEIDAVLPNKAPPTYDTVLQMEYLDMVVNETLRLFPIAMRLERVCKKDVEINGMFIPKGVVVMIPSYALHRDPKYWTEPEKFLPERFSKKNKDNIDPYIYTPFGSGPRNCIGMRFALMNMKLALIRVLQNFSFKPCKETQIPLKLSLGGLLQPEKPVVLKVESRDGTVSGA
T4 sequence (P05181 whole entry): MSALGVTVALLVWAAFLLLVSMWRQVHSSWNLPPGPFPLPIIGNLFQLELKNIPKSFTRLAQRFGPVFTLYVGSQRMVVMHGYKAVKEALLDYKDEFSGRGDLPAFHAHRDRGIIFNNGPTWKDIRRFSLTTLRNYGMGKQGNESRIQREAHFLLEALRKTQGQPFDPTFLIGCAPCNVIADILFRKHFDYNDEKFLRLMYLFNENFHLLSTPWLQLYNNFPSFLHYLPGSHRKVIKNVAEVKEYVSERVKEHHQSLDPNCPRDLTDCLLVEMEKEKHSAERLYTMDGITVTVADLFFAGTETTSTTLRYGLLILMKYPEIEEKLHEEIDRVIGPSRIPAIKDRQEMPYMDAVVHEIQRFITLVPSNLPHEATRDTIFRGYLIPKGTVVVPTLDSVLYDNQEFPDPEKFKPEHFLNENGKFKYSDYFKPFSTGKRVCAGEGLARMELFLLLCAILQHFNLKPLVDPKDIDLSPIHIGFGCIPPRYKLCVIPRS

Row | Structure (SMILES) | inhibition against metabolite production (cytochrome P450s (CYPs)) | IC50 (CYP1A2) [µM] | Ki (CYP1A2) [µM] | type of inhibition of CYP1A2 (CYP1A2; [4]) | inhibited the activity of CYP2A6 (CYP2A6) [%] | inhibited the activity of CYP2C8 (CYP2C8) [%] | inhibited the activity of CYP2E1 (CYP2E1 [1]) [%] | IC50 (CYP3A4) [µM] | Ki (CYP3A4) [µM] | type of inhibition of CYP3A4 (CYP3A4; [4]) | amount of metabolite M generated compared to CYP1A2 level (CYP2E1 [2]) [%] | Vmax of xanthotoxol metabolism (in vitro; 30 min, pH 7.4) [nmol/min/mg] | Intrinsic clearance (CLint) (in vitro; microsomes, pH 7.4) [µL/min/mg] | microsomal CLint (in vitro; microsomes, pH 7.4, Intrinsic clearance (CLint)) [µL/min/mg] | Km at 30 min (in vitro; pH 7.4) [µM] | hepatic clearance (CLH) [3] | percentage of CLH versus hepatic blood flow (QH)% [3] [%] | clearance classification ([3]; microsomes)
1 | Nn1nnc2ccccc21 [Aminobenzotriazole (ABT), 1-aminobenzotriazole] | potent inhibition | – | – | – | – | – | – | – | – | – | – | – | – | – | – | – | – | –
2 | O=c1ccc2cc3ccoc3c(O)c2o1 [xanthotoxol, Xanthotoxol] | – | 27.8 | 21.1 | noncompetitive | 82.1 | 52.1 | 25.9 | 7.43 | 2.22 | noncompetitive | 7.3 | 0.55 | 65 | 60 | 8.46 | 15.91 mL·min^−1·kg^−1 body weight | 76.8 | high-clearance drug
